Patent publication US10759766B2, “Certain chemical entities, compositions, and methods” (NeuPharma, Inc., priority 2011, dated 2020)
pIC50: −log10 of the molar value.

Columns and labels:
BRAF V600E = BRAF V600E (Homo sapiens (Human), UniProt P15056, V600E); assay: Z′-LYTE kinase inhibition assay (Invitrogen), BRAF V600E; format: biochemical; settings: 1 μM compound, Z′-LYTE method; read-out: % inhibition at 1 μM against BRAF V600E
Protocol: (§1) Inhibitory activities Inhibitory activities of compounds against BRAF, and BRAF V600E were measured by Invitrogen using Z′-LYTE® Method as briefly described in the following. 4× Test compounds are dissolved in 1% DMSO. […] ATP solutions are diluted to a 4×ATP working concentration in Kinase Buffer (50 mM HEPES pH 7.5, 0.01% BRIJ-35, 10 mM MgCl2, 1 mM EGTA). Reaction started by 30-second shaking of mixture consisting of 2.5 μL 4× test compound, […] and 2.5 μL 4×ATP Solution on Bar-coded Corning, low volume NBS, black 384-well plate (Corning Cat. #3676). Then the mixture was incubated for 60-minute at room temperature for the kinase reaction, followed by addition of 5 μL of a 1:1024 dilution of development reagent A and 30-second plate shake. The mixture was then incubated for another 60-minute at room temperature for development reaction. Fluorescence was read by plate reader. IC50 was calculated by plotting the concentration of compound vs the percentage of inhibition in treated wells using GraphPad Prism 5.
The scale utilized in Table 3 is as follows: +++ less than 100 nM; and ++ greater than 100 nM.

KDR (VEGFR2) = KDR (VEGFR2) (Homo sapiens (Human), UniProt P35968); assay: Z′-LYTE kinase inhibition assay (Invitrogen), KDR; format: biochemical; settings: 1 μM compound, Z′-LYTE method; read-out: % inhibition at 1 μM against KDR
Protocol: as §1
Inhibitory activities of compounds against KDR (VEGFR2) were also measured by Invitrogen using Z′-LYTE® Method as described above with the following modification. The 2× KDR (VEGFR2)/Tyr 01 mixture is prepared in 50 mM HEPES pH 7.5, 0.01% BRIJ-35, 10 mM MgCl2, 1 mM EGTA. The final 10 μL Kinase Reaction consists of 0.5-11.7 ng KDR (VEGFR2) and 2 μM Tyr 01 in 50 mM HEPES pH 7.5, 0.01% BRIJ-35, 10 mM MgCl2, 1 mM EGTA. After the 1 hour Kinase Reaction incubation, 5 μL of a 1:256 dilution of Development Reagent B is added.
The scale utilized in Table 5 is as follows: +++ less than 100 nM; and ++ greater than 100 nM

A375 cells = assay: Inhibition of cancer cell growth, MTT assay, A375; format: cell-based; settings: Homo sapiens, A-375, 72 h exposure
Protocol: (§2) Inhibition of cell growth by compounds was measured using MTT assay (Mosmann, T., Journal of Immunological Methods, 1983, 65, 55-63). Tumor cell lines were purchased from ATCC (American Type Culture Collection, Manassas, Va.). All cell lines were maintained in RPMI 1640 (Hyclone) supplemented with 10% fetal bovine serum (FBS, Hyclone), glutamine (2 mM, Hyclone), and antibiotics (penicillin 100 U/mL and streptomycin 50 μg/mL) at 37° C. in a humidified atmosphere of 5% CO2 in air. Taxol (as a positive control, Sigma) and compounds were dissolved in DMSO (Sigma), and the final concentration of DMSO in the medium was 1%. Tumor cells were plated in 96-well plates at densities of about 4000 cells/well of a 96-well plate and allowed to adhere/grow for 24 h. They were then treated with various concentrations of drug for 72 h. 3-(4,5-Dimethylthiazol-2-yl)-2,5-diphenyltetrazolium bromide (MTT, Sigma) was used to determine the number of viable cells at the time of compound addition and the number of cells remaining after 72 h compound exposure. The number of cells remaining after 72 h was compared to the number of viable cells at the time of compound addition by measuring the absorbance at 570 nm, allowing for the calculation of growth inhibition.
(§3) All concentrations of compounds were tested in triplicate and controls were averaged over 4 wells. IC50 was calculated by plotting the concentration of compound vs the percentage of inhibition in treated wells using GraphPad Prism 5. […] The scale utilized in Table 6 is as follows: +++ less than 1000 nM; ++ between 1000 nM and 5000 nM; and + greater than 5000 nM. The scale utilized in Table 7 is as follows: +++ less than 2000 nM; ++ between 2000 nM and 5000 nM; and + greater than 5000 nM.

A549 cells = assay: Inhibition of cancer cell growth, MTT assay, A549; format: cell-based; settings: Homo sapiens, A549, 72 h exposure
Protocol: as §2, §3

Sequence of KDR (VEGFR2) (P35968 20-1356): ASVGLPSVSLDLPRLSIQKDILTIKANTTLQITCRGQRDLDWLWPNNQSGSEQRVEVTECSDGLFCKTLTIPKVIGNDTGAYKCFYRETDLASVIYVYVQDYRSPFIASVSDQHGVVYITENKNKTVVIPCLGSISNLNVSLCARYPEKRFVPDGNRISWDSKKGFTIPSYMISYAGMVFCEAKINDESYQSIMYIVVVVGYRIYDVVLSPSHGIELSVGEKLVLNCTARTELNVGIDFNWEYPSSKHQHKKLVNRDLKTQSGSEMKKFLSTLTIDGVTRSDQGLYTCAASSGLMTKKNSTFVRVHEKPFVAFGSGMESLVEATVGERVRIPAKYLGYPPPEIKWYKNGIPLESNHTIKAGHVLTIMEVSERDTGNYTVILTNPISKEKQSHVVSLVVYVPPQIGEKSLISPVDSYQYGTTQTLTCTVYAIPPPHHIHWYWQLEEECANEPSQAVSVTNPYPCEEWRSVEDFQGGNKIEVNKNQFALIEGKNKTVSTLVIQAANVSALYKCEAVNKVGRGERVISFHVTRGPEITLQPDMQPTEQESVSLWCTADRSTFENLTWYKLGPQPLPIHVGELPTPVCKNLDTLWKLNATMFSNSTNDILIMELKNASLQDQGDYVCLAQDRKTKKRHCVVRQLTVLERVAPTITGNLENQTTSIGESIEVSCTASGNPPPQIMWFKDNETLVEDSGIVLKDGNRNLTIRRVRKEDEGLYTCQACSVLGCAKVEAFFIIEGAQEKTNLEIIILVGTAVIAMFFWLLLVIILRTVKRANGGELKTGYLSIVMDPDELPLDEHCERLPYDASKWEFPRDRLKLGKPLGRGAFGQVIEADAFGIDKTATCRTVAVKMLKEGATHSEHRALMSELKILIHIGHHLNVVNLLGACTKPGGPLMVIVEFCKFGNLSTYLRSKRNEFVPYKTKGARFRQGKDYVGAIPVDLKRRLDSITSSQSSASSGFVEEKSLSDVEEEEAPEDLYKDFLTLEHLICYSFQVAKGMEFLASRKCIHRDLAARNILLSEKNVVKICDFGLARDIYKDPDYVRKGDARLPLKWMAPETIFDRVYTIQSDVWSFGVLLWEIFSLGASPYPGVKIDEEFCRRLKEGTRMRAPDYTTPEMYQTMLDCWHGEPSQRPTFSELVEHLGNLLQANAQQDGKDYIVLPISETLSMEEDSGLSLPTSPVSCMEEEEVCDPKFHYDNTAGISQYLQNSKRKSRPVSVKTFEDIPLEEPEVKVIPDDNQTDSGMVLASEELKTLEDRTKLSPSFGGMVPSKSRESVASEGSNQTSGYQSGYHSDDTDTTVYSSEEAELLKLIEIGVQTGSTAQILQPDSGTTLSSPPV
Sequence of BRAF V600E (P15056 whole entry V600E): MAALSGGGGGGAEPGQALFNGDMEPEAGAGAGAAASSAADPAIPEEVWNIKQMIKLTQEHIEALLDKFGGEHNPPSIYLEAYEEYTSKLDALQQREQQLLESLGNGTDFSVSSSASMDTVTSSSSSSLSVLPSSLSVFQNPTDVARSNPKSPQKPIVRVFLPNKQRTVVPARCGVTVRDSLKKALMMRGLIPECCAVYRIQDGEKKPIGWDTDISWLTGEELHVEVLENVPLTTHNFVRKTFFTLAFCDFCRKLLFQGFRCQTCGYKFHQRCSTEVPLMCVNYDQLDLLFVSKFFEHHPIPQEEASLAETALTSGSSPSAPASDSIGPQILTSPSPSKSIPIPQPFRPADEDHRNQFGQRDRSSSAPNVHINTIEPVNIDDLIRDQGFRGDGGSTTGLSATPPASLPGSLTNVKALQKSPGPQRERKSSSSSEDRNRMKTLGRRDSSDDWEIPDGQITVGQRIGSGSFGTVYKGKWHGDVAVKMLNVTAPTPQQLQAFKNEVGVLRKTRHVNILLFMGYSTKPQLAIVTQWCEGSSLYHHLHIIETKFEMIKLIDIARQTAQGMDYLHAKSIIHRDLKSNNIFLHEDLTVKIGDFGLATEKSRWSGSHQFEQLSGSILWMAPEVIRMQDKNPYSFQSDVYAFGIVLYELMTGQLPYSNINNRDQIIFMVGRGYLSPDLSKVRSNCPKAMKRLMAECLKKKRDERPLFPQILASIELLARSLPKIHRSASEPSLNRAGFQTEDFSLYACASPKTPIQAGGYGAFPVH

Row | Compound | inhibition at 1 µM (BRAF V600E) [%] | inhibition at 1 µM (KDR (VEGFR2)) [%] | pIC50 (A375 cells) | pIC50 (A549 cells)
1 | O=C(Nc1cc(F)cc(C(=O)c2ccc3nccnc3c2)c1)Nc1ccc(Cl)c(F)c1 [Compound C061, 1-(4-chloro-3-fluorophenyl)-3-(3-fluoro-5-(quinoxaline-6-carbonyl)phenyl)urea] | > 89 | < 70 | < 5.30 | 5.30 to 5.70
2 | O=C(Nc1cc(F)cc(Cl)c1)Nc1cc(F)cc(C(=O)c2ccc3nccnc3c2)c1 [Compound C062, 1-(3-chloro-5-fluorophenyl)-3-(3-fluoro-5-(quinoxaline-6-carbonyl)phenyl)urea] | > 89 | < 70 | < 5.30 | 5.30 to 5.70
3 | O=C(Nc1ccc(F)cc1)Nc1cc(F)cc(C(=O)c2ccc3nccnc3c2)c1 [Compound C064, 1-(3-fluoro-5-(quinoxaline-6-carbonyl)phenyl)-3-(4-fluorophenyl)urea] | > 89 | < 70 | < 5.30 | < 5.30
4 | O=C(Nc1cc(F)cc(C(=O)c2ccc3nccnc3c2)c1)Nc1ccc(F)c(F)c1 [Compound C065, 1-(3,4-difluorophenyl)-3-(3-fluoro-5-(quinoxaline-6-carbonyl)phenyl)urea] | > 89 | < 70 | < 5.30 | < 5.30
5 | O=C(Nc1cccc(Cl)c1)Nc1cc(F)cc(C(=O)c2ccc3nccnc3c2)c1 [Compound C068, 1-(3-chlorophenyl)-3-(3-fluoro-5-(quinoxaline-6-carbonyl)phenyl)urea] | > 89 | < 70 | < 5.30 | < 5.30
6 | O=C(Nc1cc(F)cc(C(=O)c2ccc3nccnc3c2)c1)Nc1ccc(Cl)c(Cl)c1 [Compound C069, 1-(3,4-dichlorophenyl)-3-(3-fluoro-5-(quinoxaline-6-carbonyl)phenyl)urea] | > 89 | < 70 | < 5.30 | > 5.70
7 | O=C(Nc1ccc(Cl)cc1)Nc1ccc(F)c(C(=O)c2ccc3nccnc3c2)c1 [Compound C074, 1-(4-chlorophenyl)-3-(4-fluoro-3-(quinoxaline-6-carbonyl)phenyl)urea] | > 89 | < 70 | 5.30 to 6.00 | < 5.30
8 | O=C(Nc1ccc(Cl)c(F)c1)Nc1ccc(F)c(C(=O)c2ccc3nccnc3c2)c1 [Compound C077, 1-(4-chloro-3-fluorophenyl)-3-(4-fluoro-3-(quinoxaline-6-carbonyl)phenyl)urea] | > 89 | < 70 | 5.30 to 6.00 | < 5.30
9 | O=C(Nc1cc(F)cc(Cl)c1)Nc1ccc(F)c(C(=O)c2ccc3nccnc3c2)c1 [Compound C078, 1-(3-chloro-5-fluorophenyl)-3-(4-fluoro-3-(quinoxaline-6-carbonyl)phenyl)urea] | > 89 | 70 to 89 | 5.30 to 6.00 | 5.30 to 5.70
10 | COc1cnc2ccc(C(=O)c3cc(NC(=O)Nc4cccc(F)c4)ccc3F)cc2n1 [Compound C083, 1-(4-fluoro-3-(3-methoxyquinoxaline-6-carbonyl)phenyl)-3-(3-fluorophenyl)urea] | > 89 | 70 to 89 | 5.30 to 6.00 | < 5.30

Now from value to molecule:

Row | inhibition at 1 µM (BRAF V600E) [%] | inhibition at 1 µM (KDR (VEGFR2)) [%] | pIC50 (A375 cells) | pIC50 (A549 cells) | Compound
11 | > 89 | 70 to 89 | 5.30 to 6.00 | 5.30 to 5.70 | O=C(Nc1cc(F)cc(Cl)c1)Nc1ccc(F)c(C(=O)c2ccc3ncc(N4CCOCC4)nc3c2)c1 [Compound C059, 1-(3-chloro-5-fluorophenyl)-3-(4-fluoro-3-(3-morpholinoquinoxaline-6-carbonyl)phenyl)urea]
12 | > 89 | < 70 | 5.30 to 6.00 | 5.30 to 5.70 | O=C(Nc1cc(F)cc(Cl)c1)Nc1cc(F)cc(C(=O)c2ccc3ncc(N4CCOCC4)nc3c2)c1 [Compound C060, 1-(3-chloro-5-fluorophenyl)-3-(3-fluoro-5-(3-morpholinoquinoxaline-6-carbonyl)phenyl)urea]
13 | > 89 | < 70 | 5.30 to 6.00 | < 5.30 | O=C(Nc1ccc(Cl)cc1)Nc1cc(F)cc(C(=O)c2ccc3nccnc3c2)c1 [Compound C063, 1-(4-chlorophenyl)-3-(3-fluoro-5-(quinoxaline-6-carbonyl)phenyl)urea]
14 | > 89 | < 70 | 5.30 to 6.00 | 5.30 to 5.70 | O=C(Nc1ccc(C(F)(F)F)cc1)Nc1cc(F)cc(C(=O)c2ccc3nccnc3c2)c1 [Compound C066, 1-(3-fluoro-5-(quinoxaline-6-carbonyl)phenyl)-3-(4-(trifluoromethyl)phenyl)urea]
15 | > 89 | < 70 | 5.30 to 6.00 | 5.30 to 5.70 | O=C(Nc1cc(F)cc(C(=O)c2ccc3nccnc3c2)c1)Nc1ccc(F)c(Cl)c1 [Compound C067, 1-(3-chloro-4-fluorophenyl)-3-(3-fluoro-5-(quinoxaline-6-carbonyl)phenyl)urea]
16 | > 89 | > 89 | 5.30 to 6.00 | < 5.30 | O=C(Nc1ccc(F)cc1)Nc1ccc(F)c(C(=O)c2ccc3nccnc3c2)c1 [Compound C070, 1-(4-fluoro-3-(quinoxaline-6-carbonyl)phenyl)-3-(4-fluorophenyl)urea]
17 | > 89 | < 70 | 5.30 to 6.00 | < 5.30 | O=C(Nc1ccc(F)c(F)c1)Nc1ccc(F)c(C(=O)c2ccc3nccnc3c2)c1 [Compound C071, 1-(3,4-difluorophenyl)-3-(4-fluoro-3-(quinoxaline-6-carbonyl)phenyl)urea]
18 | > 89 | < 70 | 5.30 to 6.00 | < 5.30 | O=C(Nc1cccc(Cl)c1)Nc1ccc(F)c(C(=O)c2ccc3nccnc3c2)c1 [Compound C072, 1-(3-chlorophenyl)-3-(4-fluoro-3-(quinoxaline-6-carbonyl)phenyl)urea]
19 | > 89 | > 89 | 5.30 to 6.00 | < 5.30 | O=C(Nc1ccc(F)c(Cl)c1)Nc1ccc(F)c(C(=O)c2ccc3nccnc3c2)c1 [Compound C073, 1-(3-chloro-4-fluorophenyl)-3-(4-fluoro-3-(quinoxaline-6-carbonyl)phenyl)urea]
20 | > 89 | < 70 | > 6.00 | > 5.70 | O=C(Nc1ccc(C(F)(F)F)cc1)Nc1ccc(F)c(C(=O)c2ccc3nccnc3c2)c1 [Compound C075, 1-(4-fluoro-3-(quinoxaline-6-carbonyl)phenyl)-3-(4-(trifluoromethyl)phenyl)urea]
21 | > 89 | > 89 | > 6.00 | 5.30 to 5.70 | O=C(Nc1cccc(F)c1)Nc1ccc(F)c(C(=O)c2ccc3ncc(N4CCNCC4)nc3c2)c1 [Compound C084, 1-(4-fluoro-3-(3-(piperazin-1-yl)quinoxaline-6-carbonyl)phenyl)-3-(3-fluorophenyl)urea]
